# Data taken from patent US20030148529A1 (priority 2000, published 2003).
# Assays:
# M. croceipes = test system: M. croceipes; set-up: species or system Microplitis croceipes; details: in vivo
# [1] = test system: Male and female M. croceipes; set-up: species or system Microplitis croceipes; details: in vivo
compound,measurement,setting,value
CCCCCC(=O)CC [3-Octanone],Average number of times a trained wasp entered the opening,M. croceipes,approximately 1.5
same,Average time spent in the opening,M. croceipes,15 s
same,Trained wasps displaying head-sticking behavior,M. croceipes,about 18 out of 20
same,Head-sticking behavior,[1],no head-sticking behavior
